Test results taken from patent US7544694B2, “Substituted diaza-spiro-[5.5]-undecane derivatives and their use as neurokinin antagonists” (Janssen Pharmaceutica N.V., priority 2004, dated 2009).

How the values were obtained:
Type in all cases: cell-based
[1] = target: T1, NK3 (Homo sapiens, UniProt P29371); test: Signal transduction (ST), intracellular Ca++ (FLIPR), NK3; details: antagonist, read-out: NK3 pIC50 (converted)
T1 sequence (P29371 1-465): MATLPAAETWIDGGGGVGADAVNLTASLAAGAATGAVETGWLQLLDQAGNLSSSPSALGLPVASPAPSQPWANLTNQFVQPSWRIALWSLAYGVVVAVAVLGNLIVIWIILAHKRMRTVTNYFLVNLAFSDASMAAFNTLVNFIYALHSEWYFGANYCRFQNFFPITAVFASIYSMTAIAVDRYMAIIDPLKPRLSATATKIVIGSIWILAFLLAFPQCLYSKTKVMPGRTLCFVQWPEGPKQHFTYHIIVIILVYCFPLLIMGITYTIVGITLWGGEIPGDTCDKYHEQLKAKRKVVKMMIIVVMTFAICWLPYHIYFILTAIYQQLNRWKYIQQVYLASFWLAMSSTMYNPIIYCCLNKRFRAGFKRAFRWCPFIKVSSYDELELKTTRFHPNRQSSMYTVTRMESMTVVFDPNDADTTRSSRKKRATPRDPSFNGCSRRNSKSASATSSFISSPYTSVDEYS
Method: [The source words this procedure for another target and reports this target under the same test.] (§1) This test evaluates in vitro functional NK1 antagonistic activity. For the measurements of intracellular Ca^++ concentrations the cells were grown on 96-well (black wall/transparent bottom) plates from Costar for 2 days until they reached confluence. The cells were loaded with 2 μM Fluo3 in DMEM containing 0.1% BSA and 2.5 mM probenecid for 1 h at 37° C. They were washed 3× with a Krebs buffer (140 mM NaCl, 1 mM MgCl2×6H2O, 5 mM KCl, 10 mM glucose, 5 mM HEPES; 1.25 mM CaCl2; pH 7.4) containing 2.5 mM probenecid and 0.1% BSA (Ca^++-buffer). The cells were preincubated with a concentration range of antagonists for 20 min at RT and Ca^++-signals after addition of the agonists were measured in a Fluorescence Image Plate Reader (FLIPR from Molecular Devices, Crawley, England). The peak of the Ca^++-transient was considered as the relevant signal and the mean values of corresponding wells were analysed as described below.
(§2) The sigmoidal dose response curves were analysed by computerised curve-fitting, using the GraphPad Program. The EC50-value of a compound is the effective dose showing 50% of maximal effect. For mean curves the response to the agonist with the highest potency was normalised to 100%. For antagonist responses the IC50-value was calculated using non-linear regression.
(§3) The last columns indicate—without being limited thereto—for which action the compounds might be most suitable. Of course, since for some neurokinin receptors no data was determined, it is obvious that these compounds might be attributed to another suitable use.

[2] = target: T2, NK2 (Homo sapiens, UniProt P21452); test: Signal transduction (ST), intracellular Ca++ (FLIPR), NK2; details: antagonist, read-out: NK2 pIC50 (converted)
T2 sequence (P21452 1-398): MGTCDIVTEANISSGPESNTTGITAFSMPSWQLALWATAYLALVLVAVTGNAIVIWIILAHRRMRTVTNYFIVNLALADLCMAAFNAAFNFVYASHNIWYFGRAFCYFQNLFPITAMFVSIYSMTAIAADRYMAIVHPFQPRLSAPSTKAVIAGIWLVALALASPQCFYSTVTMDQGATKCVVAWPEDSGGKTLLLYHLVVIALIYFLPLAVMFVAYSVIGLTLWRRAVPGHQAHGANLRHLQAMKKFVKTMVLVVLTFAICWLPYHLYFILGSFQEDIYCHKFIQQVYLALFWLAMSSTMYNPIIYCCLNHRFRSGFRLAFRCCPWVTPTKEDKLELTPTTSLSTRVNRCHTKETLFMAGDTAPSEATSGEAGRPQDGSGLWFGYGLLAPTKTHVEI
Method: [The source words this procedure for another target and reports this target under the same test.] as §1, §2, §3

[3] = target: NK1 (Homo sapiens, UniProt P25103); test: Signal transduction (ST), intracellular Ca++ (FLIPR), functional NK1 antagonistic activity; details: antagonist, read-out: NK1 pIC50 (converted)
Method: as §1, §2, §3

Sequence of NK1 (P25103 whole entry): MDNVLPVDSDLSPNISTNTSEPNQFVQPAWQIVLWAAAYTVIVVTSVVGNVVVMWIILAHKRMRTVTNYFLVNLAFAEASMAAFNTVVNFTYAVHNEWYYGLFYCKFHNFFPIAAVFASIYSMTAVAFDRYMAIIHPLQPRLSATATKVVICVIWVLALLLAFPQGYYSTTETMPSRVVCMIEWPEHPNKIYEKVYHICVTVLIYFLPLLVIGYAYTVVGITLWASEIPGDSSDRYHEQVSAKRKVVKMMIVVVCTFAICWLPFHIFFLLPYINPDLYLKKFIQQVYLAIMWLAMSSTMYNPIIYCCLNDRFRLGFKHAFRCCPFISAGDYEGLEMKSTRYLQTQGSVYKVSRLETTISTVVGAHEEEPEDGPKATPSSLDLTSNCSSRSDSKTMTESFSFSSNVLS

Compound | IC50 [1] [µM] | IC50 [2] [nM] | IC50 [3] [nM]
O=C(CN1CCOC1=O)N1CCC2(CC1)CCN([C@H]1CCN(C(=O)c3cc(C(F)(F)F)cc(C(F)(F)F)c3)[C@H](Cc3ccccc3)C1)CC2 [Compound 79] | > 10 | > 10000 | 170
O=C(Cc1ccc2c(c1)OCO2)N1CCC2(CC1)CCN([C@H]1CCN(C(=O)c3cc(C(F)(F)F)cc(C(F)(F)F)c3)[C@H](Cc3ccccc3)C1)CC2 [Compound 81] | > 10 | 5250 | 115
O=C1OC(CC(=O)N2CCC3(CC2)CCN([C@H]2CCN(C(=O)c4cc(C(F)(F)F)cc(C(F)(F)F)c4)[C@H](Cc4ccccc4)C2)CC3)c2ccccc21 (stereo partly drawn) [Compound 82] | 8.91 | 2000 | 46.8
COc1cccc(CCC(=O)N2CCC3(CC2)CCN([C@H]2CCN(C(=O)c4cc(C(F)(F)F)cc(C(F)(F)F)c4)[C@H](Cc4ccccc4)C2)CC3)c1 [Compound 83] | 8.91 | 2570 | 36.3
O=C(C=Cc1ccco1)N1CCC2(CC1)CCN([C@H]1CCN(C(=O)c3cc(C(F)(F)F)cc(C(F)(F)F)c3)[C@H](Cc3ccccc3)C1)CC2 [Compound 84] | > 10 | 7240 | 282
C/C(=C\C(=O)N1CCC2(CC1)CCN([C@H]1CCN(C(=O)c3cc(C(F)(F)F)cc(C(F)(F)F)c3)[C@H](Cc3ccccc3)C1)CC2)C(F)(F)F [Compound 86] | > 10 | > 10000 | 129
O=C(c1cc(C(F)(F)F)cc(C(F)(F)F)c1)N1CC[C@H](N2CCC3(CCN(C(=O)C4(c5ccccc5)CCCC4)CC3)CC2)C[C@H]1Cc1ccccc1 [Compound 90] | > 10 | 5370 | 355
O=C(c1cc(C(F)(F)F)cc(C(F)(F)F)c1)N1CC[C@H](N2CCC3(CC2)CCN(S(=O)(=O)C(F)(F)F)CC3)C[C@H]1Cc1ccccc1 [Compound 91] | 4.37 | 1380 | 87.1
O=C(c1cc(C(F)(F)F)cc(C(F)(F)F)c1)N1CCC(N2CCC3(CC2)CCN(S(=O)(=O)c2cccs2)CC3)CC1Cc1ccccc1 (stereo not drawn) [Compound 92] | 0.339 | 1320 | 17
O=C(c1cc(C(F)(F)F)cc(C(F)(F)F)c1)N1CC[C@H](N2CCC3(CC2)CCN(S(=O)(=O)c2ccc(Cl)s2)CC3)C[C@H]1Cc1ccccc1 [Compound 94] | 0.575 | > 10000 | 132
O=C(c1cc(C(F)(F)F)cc(C(F)(F)F)c1)N1CC[C@H](N2CCC3(CC2)CCN(S(=O)(=O)c2ccc(Br)s2)CC3)C[C@H]1Cc1ccccc1 [Compound 95] | 2.34 | 1910 | 269

The next lines start with the values.

IC50 [1] [µM] | IC50 [2] [nM] | IC50 [3] [nM] | Compound
> 10 | > 10000 | 29.5 | Cc1cn(CC(=O)N2CCC3(CC2)CCN([C@H]2CCN(C(=O)c4cc(C(F)(F)F)cc(C(F)(F)F)c4)[C@H](Cc4ccccc4)C2)CC3)c(=O)[nH]c1=O [Compound 80]
> 10 | > 10000 | 309 | O=C(C=Cc1ccoc1)N1CCC2(CC1)CCN([C@H]1CCN(C(=O)c3cc(C(F)(F)F)cc(C(F)(F)F)c3)[C@H](Cc3ccccc3)C1)CC2 [Compound 85]
> 10 | 3020 | 41.7 | O=C(C(CO)c1ccccc1)N1CCC2(CC1)CCN([C@H]1CCN(C(=O)c3cc(C(F)(F)F)cc(C(F)(F)F)c3)[C@H](Cc3ccccc3)C1)CC2 (stereo partly drawn) [Compound 88]
> 10 | 2510 | 148 | O=C(c1cc(C(F)(F)F)cc(C(F)(F)F)c1)N1CC[C@H](N2CCC3(CCN(C(=O)C4(c5ccccc5)CC4)CC3)CC2)C[C@H]1Cc1ccccc1 [Compound 89]
0.501 | 1100 | 25.7 | O=C(c1cc(C(F)(F)F)cc(C(F)(F)F)c1)N1CC[C@H](N2CCC3(CC2)CCN(S(=O)(=O)c2ccsc2)CC3)C[C@H]1Cc1ccccc1 [Compound 93]
